Consider 15 molecules from ChEMBL document CHEMBL1157388, “Recent developments in fragment-based drug discovery” (J Med Chem, 2008).

Assay [1] deals with T1, Queuine tRNA-ribosyltransferase catalytic subunit 1 (Homo sapiens, UniProt Q9BXR0).
T1 sequence (Q9BXR0 whole entry): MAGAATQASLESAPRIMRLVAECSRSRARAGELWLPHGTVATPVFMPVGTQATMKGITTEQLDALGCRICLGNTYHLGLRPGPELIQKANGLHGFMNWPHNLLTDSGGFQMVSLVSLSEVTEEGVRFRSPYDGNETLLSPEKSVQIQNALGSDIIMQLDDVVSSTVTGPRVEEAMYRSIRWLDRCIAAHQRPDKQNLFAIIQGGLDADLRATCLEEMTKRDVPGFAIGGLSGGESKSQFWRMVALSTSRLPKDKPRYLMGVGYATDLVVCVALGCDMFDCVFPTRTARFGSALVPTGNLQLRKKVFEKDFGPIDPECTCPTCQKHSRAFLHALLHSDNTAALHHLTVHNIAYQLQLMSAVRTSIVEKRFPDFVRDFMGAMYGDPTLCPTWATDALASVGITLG

The target in assay [2] is Urokinase-type plasminogen activator (Homo sapiens, UniProt P00749).
The target in another assay is Carbonic anhydrase 2 (Bos taurus, UniProt P00921).
Assay [3] deals with Heat shock protein HSP 90-beta (Homo sapiens, UniProt P08238).
A further assay concerns the target T2, Aurora kinase A (Homo sapiens, UniProt O14965).
T2 sequence (O14965 whole entry): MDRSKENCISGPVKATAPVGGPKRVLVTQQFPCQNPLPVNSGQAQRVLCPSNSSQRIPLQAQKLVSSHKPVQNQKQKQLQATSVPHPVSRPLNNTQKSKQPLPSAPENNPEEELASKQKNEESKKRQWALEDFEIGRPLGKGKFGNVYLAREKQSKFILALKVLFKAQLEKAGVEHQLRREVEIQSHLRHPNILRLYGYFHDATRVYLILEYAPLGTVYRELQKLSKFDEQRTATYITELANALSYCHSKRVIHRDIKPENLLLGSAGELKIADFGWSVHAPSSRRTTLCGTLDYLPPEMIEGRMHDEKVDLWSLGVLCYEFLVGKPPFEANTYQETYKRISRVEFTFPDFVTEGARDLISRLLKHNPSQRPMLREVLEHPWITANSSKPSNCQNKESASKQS

A short description of assay [4]: Inhibition of PDE4.
In another assay the target is T3, Caspase-1 (Homo sapiens, UniProt P29466).
T3 sequence (P29466 whole entry): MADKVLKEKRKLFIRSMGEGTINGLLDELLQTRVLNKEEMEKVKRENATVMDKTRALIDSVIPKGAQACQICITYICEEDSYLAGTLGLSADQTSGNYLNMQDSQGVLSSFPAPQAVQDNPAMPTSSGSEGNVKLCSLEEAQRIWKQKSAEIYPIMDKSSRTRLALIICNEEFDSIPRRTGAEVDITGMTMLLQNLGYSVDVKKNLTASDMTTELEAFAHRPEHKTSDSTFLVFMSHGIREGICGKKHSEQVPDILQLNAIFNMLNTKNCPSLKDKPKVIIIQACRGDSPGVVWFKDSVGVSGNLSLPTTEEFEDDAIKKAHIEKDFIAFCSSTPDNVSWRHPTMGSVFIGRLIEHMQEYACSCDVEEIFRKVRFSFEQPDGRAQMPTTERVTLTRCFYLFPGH
As to the kind of experiment: Inhibition of caspase 1.

Assay [5] deals with RAC-alpha serine/threonine-protein kinase (Homo sapiens, UniProt P31749). The experiment in a line: Inhibition of protein kinase B.
A further assay concerns the target Prothrombin (Homo sapiens, UniProt P00734). The experiment in a line: Inhibition of thrombin.

Carbonic anhydrase 2, sequence (P00921 whole entry): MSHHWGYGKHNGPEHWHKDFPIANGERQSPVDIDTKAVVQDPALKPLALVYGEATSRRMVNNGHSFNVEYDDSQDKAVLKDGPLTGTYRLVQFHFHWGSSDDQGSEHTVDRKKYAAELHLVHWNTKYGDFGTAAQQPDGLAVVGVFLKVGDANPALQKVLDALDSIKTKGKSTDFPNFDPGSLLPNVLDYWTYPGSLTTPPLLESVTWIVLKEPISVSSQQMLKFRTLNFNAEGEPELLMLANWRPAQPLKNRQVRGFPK
Heat shock protein HSP 90-beta, sequence (P08238 whole entry): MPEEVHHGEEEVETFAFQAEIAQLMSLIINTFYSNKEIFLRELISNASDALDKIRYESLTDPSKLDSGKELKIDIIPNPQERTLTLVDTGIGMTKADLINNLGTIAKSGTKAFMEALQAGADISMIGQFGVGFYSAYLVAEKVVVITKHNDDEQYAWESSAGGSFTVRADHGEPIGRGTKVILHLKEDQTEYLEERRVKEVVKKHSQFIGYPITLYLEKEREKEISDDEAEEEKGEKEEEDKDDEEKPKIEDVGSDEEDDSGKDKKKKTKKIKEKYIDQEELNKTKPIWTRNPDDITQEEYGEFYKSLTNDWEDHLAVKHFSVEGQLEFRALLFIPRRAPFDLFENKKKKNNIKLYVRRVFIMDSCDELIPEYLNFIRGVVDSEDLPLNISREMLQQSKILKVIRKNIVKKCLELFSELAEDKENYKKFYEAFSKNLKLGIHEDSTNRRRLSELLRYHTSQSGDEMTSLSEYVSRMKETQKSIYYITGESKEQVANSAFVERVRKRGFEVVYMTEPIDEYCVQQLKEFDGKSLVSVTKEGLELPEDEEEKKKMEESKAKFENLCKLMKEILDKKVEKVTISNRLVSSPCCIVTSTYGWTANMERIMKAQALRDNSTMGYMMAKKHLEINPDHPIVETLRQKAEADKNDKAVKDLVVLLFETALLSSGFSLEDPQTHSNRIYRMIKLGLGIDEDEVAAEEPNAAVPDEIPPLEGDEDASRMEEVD
RAC-alpha serine/threonine-protein kinase, sequence (P31749 whole entry): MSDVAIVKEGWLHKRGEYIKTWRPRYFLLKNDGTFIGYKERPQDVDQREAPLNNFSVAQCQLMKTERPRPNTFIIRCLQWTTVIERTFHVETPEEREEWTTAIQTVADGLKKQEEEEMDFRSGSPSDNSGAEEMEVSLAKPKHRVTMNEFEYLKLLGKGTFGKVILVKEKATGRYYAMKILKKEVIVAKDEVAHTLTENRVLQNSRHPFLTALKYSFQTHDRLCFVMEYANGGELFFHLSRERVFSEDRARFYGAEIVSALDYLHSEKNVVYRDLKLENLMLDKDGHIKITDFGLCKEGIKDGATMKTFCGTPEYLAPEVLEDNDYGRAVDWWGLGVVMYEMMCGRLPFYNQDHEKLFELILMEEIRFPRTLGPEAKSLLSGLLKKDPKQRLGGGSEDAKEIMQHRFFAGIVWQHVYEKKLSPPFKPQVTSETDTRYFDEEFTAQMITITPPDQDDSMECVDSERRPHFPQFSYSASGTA

Regarding `COc1ccc(CCc2c3nc[nH]c3cc3c(=O)[nH]c(N)nc23)cc1`, the affinity in assay [1], expressed as Ki, was 3.7 µM.
In the case of `Nc1nc2cc(O)ccc2[nH]1`, the 50% inhibitory concentration (IC50) (usually the concentration needed to halve the response being measured) in assay [2] was 200 µM.
For `C#Cc1ccc(S(N)(=O)=O)cc1`, binding on Carbonic anhydrase 2 was put at a Kd of 0.037 µM.
In the case of `O=C1OCC/C1=C\Nc1ccccc1`, in assay [3], the Kd (as a rule, the equilibrium constant for the complex coming apart) was determined as 150 µM.
On to `Nc1nc2ccccc2c(=O)[nH]1`, for which, in assay [1], the Ki (as a rule, a measure of affinity in units of concentration, obtained from inhibition or displacement) was found to be 2.1 µM.
Molecule `COc1cc2[nH]c3ncnc(Cl)c3c2cc1OC` yielded an IC50 against Aurora kinase A of 3 µM.
Still for that read-out and setting: the same measure for `Nc1ccc(S(=O)(=O)Nc2ncccn2)cc1` [SULFADIAZINE]: 21 µM.
Turning to `Cc1cc(C#Cc2ccccc2/C=N/N2CCOC2=O)nc(N)n1`, the Kd in [3] was 4 µM.
In turn, `CCOC(=O)c1c(C)nn(-c2ccccc2Cl)c1C` returned an IC50 in assay [4] of 0.019 µM.
As to `COc1cc2[nH]c3ncnc(N4CCN(C(=S)Nc5ccc(S(=O)(=O)Nc6ncccn6)cc5)CC4)c3c2cc1OC`, the midpoint of inhibition against Aurora kinase A, the IC50, lay at 0.094 µM.
Molecule `CC(C)[C@@H](C(=O)N1CC2CCC(CC2)C1)n1cc(-c2ccc(S(N)(=O)=O)cc2)nn1` came in with a Kd on Carbonic anhydrase 2 of 0.0002 µM.
At Caspase-1, `O=C[C@H](CC(=O)O)NC(=O)c1ccc(CNC(=O)c2ccc(Nc3cnc4ccccc4n3)cc2)nc1` gave an IC50 of 0.005 µM.
`c1ccc(-c2cn[nH]c2)cc1` showed an IC50 in assay [5] of 135 µM.
At Prothrombin, `COc1ccc(S(=O)(=O)NC[C@@H](O)[C@H](Cc2ccccc2)NCc2cc(Cl)ccc2-n2cnnn2)cc1` displayed an IC50 of 0.004 µM.
`O=C[C@H](CC(=O)O)NC(=O)CCCCCNC(=O)c1ccc(Nc2cnc3ccccc3n2)cc1`: the IC50 at Caspase-1 was found to be 0.19 µM. In other words, the sub-micromolar range.
